For one data set, the target named is T1, Human A2A receptor (Homo sapiens, UniProt P29274).
T1 construct: expressed in transfected cells; host or cells: HEK-293 cells
Put plainly: Human A2A receptor binding assay, [3H]CGS 21680, HEK-293 cells. Particulars: for IC50 / inhibition at 10 µM: [3H]CGS 21680 6 nM; for IC50: HEK-293 cells, read-out: hA2A IC50; for inhibition at 10 µM: read-out: hA2A inhibition at 10 μM. As for the experimental part:
Compounds of the invention were evaluated in binding assays following procedure described by Luthin et al. (Mol. Pharmacol. (1995), 47:307-313). Human A2A receptors were used in HEK-293 cells with [^3H]CGS 21680 (6 nM) as radioligand, NECA (10 μM) for non-specific binding and 90 minutes of incubation at 22° C.

Data set [1] deals with T2, Human A3 receptor (Homo sapiens, UniProt P0DMS8).
T2 sequence (P0DMS8 1-318): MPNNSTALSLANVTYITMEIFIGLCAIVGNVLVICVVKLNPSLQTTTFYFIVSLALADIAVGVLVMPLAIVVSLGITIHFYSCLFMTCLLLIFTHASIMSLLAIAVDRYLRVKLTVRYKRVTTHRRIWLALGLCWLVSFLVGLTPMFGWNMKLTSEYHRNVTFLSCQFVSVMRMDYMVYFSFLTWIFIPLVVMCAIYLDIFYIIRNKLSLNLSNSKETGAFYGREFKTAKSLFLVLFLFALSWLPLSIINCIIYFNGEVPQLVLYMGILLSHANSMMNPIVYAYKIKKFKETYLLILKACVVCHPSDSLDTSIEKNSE
In words: Human A3 receptor binding assay, [125I]AB-MECA, HEK-293 cells. Also on record: expressed in transfected cells. Particulars: [125I]AB-MECA 0.15 nM; for IC50: HEK-293 cells, read-out: hA3 IC50; for inhibition at 1 µM: read-out: hA3 inhibition at 1 μM (of specific binding). As for the experimental part:
Compounds of the invention were evaluated in binding assays following procedure described by Salvatore et al. (Proc. Natl. Acad. Sci. (1993), 90:10365-10369). Human A3 receptors were used in HEK-293 cells with [^125I]AB-MECA (0.15 nM) as radioligand, IB-MECA (1 μM) for non-specific binding and 90 minutes of incubation at 22° C.

Data set [2] deals with T2, Human A3 receptor. Put plainly: Functional assay on human A3 receptor: forskolin-stimulated cAMP in CHO cells. The data set is classed as cell-based. Set-up: expressed in transfected cells; host or cells: CHO cells. Particulars: for cAMP levels: forskolin 10 μM, example 1 10 μM, Cl-IB-MECA 0.1 μM, Basal 0, Forskolin 100. As for the experimental part: CHO cells expressing the human A3 receptor were grown overnight as a monolayer in 24 well tissue culture plates (400 μl/well; 2×10^5 cells/well). cAMP generation was performed in Dulbecco's modified Eagle's medium (DMEM)/N-2-hydroxyethylpiperazin-N-2-ethansulfonic acid (HEPES) buffer (0.60 g HEPES/50 ml DMEM pH 7.4). Each well was washed twice with HEPES/DMEM buffer (250 μl), and the following added: rolipram (50 μM) and cilostamide (50 μM). This was incubated for 30 min at 37° C. followed by the introduction of the compound of example 1 (10 μM) and Cl-IB-MECA (0.1 μM) or DMEM/HEPES. After a further 10 min of incubation, forskolin was added (10 μM). After a subsequent 15 min, incubation was stopped by aspirating the assay medium and by adding 200 μl of ice-cold 0.1M HCl. The amount of cAMP was determined by competition with [3H]cAMP for protein kinase A (PKA). Briefly, the sample, approximately 1.8 nM [3H]cAMP, and 100 μl of PKA solution were incubated on ice for at least 2.5 h. The incubations were stopped by rapid dilution with 2 ml of icecold Tris HCl buffer (pH 7.4), and bound radioactive material was then recovered by filtration through Whatman GF/C filters. Filters were additionally rinsed with 2×2 ml of Tris HCl buffer, and then the radioactivity was counted in Packard Emulsifier Safe scintillation fluid (3.5 mL). All data reflect three independent experiments.
In general terms: cAMP levels reflect the balance of adenylyl cyclase and phosphodiesterase activity.

For a further data set, the target named is T3, Human A1 receptor (Homo sapiens, UniProt P30542).
T3 construct: expressed in transfected cells; host or cells: CHO cells
T3 sequence (P30542 1-326): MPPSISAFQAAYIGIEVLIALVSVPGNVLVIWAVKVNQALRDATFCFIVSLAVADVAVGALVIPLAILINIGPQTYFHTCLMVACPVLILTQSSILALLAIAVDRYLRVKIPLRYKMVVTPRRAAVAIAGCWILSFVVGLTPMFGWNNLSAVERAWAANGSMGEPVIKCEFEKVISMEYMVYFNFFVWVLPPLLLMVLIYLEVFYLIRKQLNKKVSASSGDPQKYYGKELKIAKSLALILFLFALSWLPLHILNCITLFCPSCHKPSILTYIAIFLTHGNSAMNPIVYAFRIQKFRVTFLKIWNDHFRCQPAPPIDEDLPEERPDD
Put plainly: Human A1 receptor binding assay, [3H]DPCPX, CHO cells. Particulars: for IC50 / inhibition at 10 µM: [3H]DPCPX 1 nM; for IC50: CHO cells, read-out: hA1 IC50; for inhibition at 10 µM: read-out: hA1 inhibition at 10 μM. As for the experimental part:
Compounds of the invention were evaluated in binding assays following procedure described by Townsend-Nicholson and Schofield (J. Biol. Chem. (1994), 269:2373-2376). Human A1 receptors were used in CHO cells with [^3H]DPCPX (1 nM) as radioligand, DPCPX (1 μM) for non-specific binding and 60 minutes of incubation at 22° C.

The target in another data set is T4, Human A2B receptor (Homo sapiens, UniProt P29275).
T4 construct: expressed in transfected cells; host or cells: HEK-293 cells
T4 sequence (P29275 1-332): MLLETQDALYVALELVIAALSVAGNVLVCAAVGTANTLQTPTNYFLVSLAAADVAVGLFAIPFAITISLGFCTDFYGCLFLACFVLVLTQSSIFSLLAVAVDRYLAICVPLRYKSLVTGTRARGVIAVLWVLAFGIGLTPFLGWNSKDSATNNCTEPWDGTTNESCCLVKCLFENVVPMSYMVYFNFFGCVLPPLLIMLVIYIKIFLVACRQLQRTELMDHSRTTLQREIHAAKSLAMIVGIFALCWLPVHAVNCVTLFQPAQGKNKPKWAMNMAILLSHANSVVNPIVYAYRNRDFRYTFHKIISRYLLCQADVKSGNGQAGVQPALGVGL
Put plainly: Human A2B receptor binding assay, [3H]MRS1754, HEK-293 cells. Particulars: for IC50: [3H]MRS1754 0.5 nM, HEK-293 cells, read-out: hA2B IC50. As for the experimental part: Compounds of the invention were evaluated in binding assays following procedure described by Stehle et al. (Mol. Endocrinol. (1992), 6:384-393). Human A2B receptors were used in HEK-293 cells with [^3H]MRS1754 (0.5 nM) as radioligand, NECA (1 μM) for non-specific binding and 120 minutes of incubation at 22° C.

The structures appear in SMILES notation. Structures can show the parent of a compound that is named as a salt. Where only a bound is given, the exact number is not on record here.

T1 sequence (P29274 whole entry): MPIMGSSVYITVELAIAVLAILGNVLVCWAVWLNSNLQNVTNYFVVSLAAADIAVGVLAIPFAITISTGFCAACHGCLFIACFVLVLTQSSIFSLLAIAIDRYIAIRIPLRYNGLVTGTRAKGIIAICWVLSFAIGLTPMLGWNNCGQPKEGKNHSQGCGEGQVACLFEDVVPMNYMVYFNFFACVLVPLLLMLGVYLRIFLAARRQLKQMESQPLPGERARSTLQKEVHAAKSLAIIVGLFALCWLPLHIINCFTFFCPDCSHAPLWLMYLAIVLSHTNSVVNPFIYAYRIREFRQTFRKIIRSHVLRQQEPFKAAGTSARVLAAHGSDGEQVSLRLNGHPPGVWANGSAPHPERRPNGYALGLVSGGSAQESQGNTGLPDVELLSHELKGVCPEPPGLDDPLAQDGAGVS

For the compound `CCNc1nc2ccccc2n2cc(-c3ccccc3)cc12.Cl`, the melting point – broadly, the temperature, or range, at which the solid turns liquid – fell in the range of 299 to 301 °C.
As to `O=c1[nH]c2ccccc2n2cc(-c3ccccc3)cc12` [Example 1, 2-Phenyl-5H-pyrrolo[1,2-a]quinoxalin-4-one], the melting point is 301 to 303 °C. For the same compound, the IC50 (commonly the concentration that gives 50% inhibition) at Human A2A receptor is greater than 10 µM. The “affinity on A2A (in words)” value at Human A2A receptor (up to 10 μM) is on record as “no detectable affinity”. In addition, the concentration for half-maximal inhibition (IC50) on Human A3 receptor [1] was 0.0093 µM. Further, the “mode of action at A3 receptor (prevents cAMP-decrease evoked by Cl-IB-MECA)” value at Human A3 receptor [2] (example 1 10 μM vs Cl-IB-MECA 0.1 μM) is listed as “antagonist”. This compound also displayed a cAMP levels at Human A3 receptor [2] (n = 1) of 150.133. Besides, the cAMP levels on Human A3 receptor [2] (n = 2) turned out to be 130.150. For the same compound, the cAMP levels at Human A3 receptor [2] (n = 3) is recorded as 104.510. The IC50 on Human A1 receptor was greater than 10 µM. Moreover, the “affinity on A1 (in words)” value at Human A1 receptor (up to 10 μM) is recorded as “no detectable affinity”. Also, the IC50 at Human A2B receptor was greater than 1 µM. Further, the “affinity on A2B (in words)” value on Human A2B receptor (up to 1 μM) was “no detectable affinity”.
Turning to `COc1ccc(-c2cc3c(=O)[nH]c4ccccc4n3c2)cc1` [Example 2, 2-(4-Methoxy-phenyl)-5H-pyrrolo[1,2-a]quinoxalin-4-one], the melting point lay in the range of 327 to 332 °C. For the same compound, the inhibition – broadly, the change of the read-out against control, counted positive when it falls – at 1 µM at Human A3 receptor [1] was found to be 82%.
Compound `c1ccc(Nc2nc3ccccc3n3cc(-c4ccccc4)cc23)cc1` [Example 3, Phenyl-(2-phenyl-pyrrolo[1,2-a]quinoxalin-4-yl)-amine] displayed a melting point of 172 °C.
On to `CN(C)c1nc2ccccc2n2cc(-c3ccccc3)cc12` [Example 6, Dimethyl-(2-phenyl-pyrrolo[1,2-a]quinoxalin-4-yl)-amine], for which the melting point was 109 to 111 °C.
Compound `c1ccc(CCNc2nc3ccccc3n3cc(-c4ccccc4)cc23)cc1` [Example 7, Phenethyl-(2-phenyl-pyrrolo[1,2-a]quinoxalin-4-yl)-amine] registered a melting point of 126 °C.
Compound `CSc1nc2ccccc2n2cc(-c3ccccc3)cc12` [Example 9, 4-Methylsulfanyl-2-phenyl-pyrrolo[1,2-a]quinoxaline] came in with a melting point of 132 °C.
Turning to `CN(C)c1ccc(-c2cc3c(=O)[nH]c4ccccc4n3c2)cc1` [Example 10, 2-(4-Dimethylamino-phenyl)-5H-pyrrolo[1,2-a]quinoxalin-4-one, trifluoroacetic acid salt], on Human A3 receptor [1], the inhibition at 1 µM came to 32%.
As for `O=c1[nH]c2ccc(N3CCOCC3)cc2n2cc(-c3ccccc3)cc12` [Example 11, 8-Morpholin-4-yl-2-phenyl-5H-pyrrolo[1,2-a]quinoxalin-4-one, trifluoroacetic acid salt], the IC50 at Human A2A receptor and at Human A2B receptor was greater than 10 µM in each case. Besides, the inhibition at 1 µM at Human A3 receptor [1] was determined as 90%. Also, at Human A1 receptor, the inhibition at 10 µM came to 53%.
Take `Cc1ccc2[nH]c(=O)c3cc(-c4ccccc4)cn3c2c1` [Example 12, 8-Methyl-2-phenyl-5H-pyrrolo[1,2-a]quinoxalin-4-one]: the melting point fell in the range of 314 to 315 °C.
Turning to `O=c1[nH]c2ccc(Cl)cc2n2cc(-c3ccccc3)cc12` [Example 13, 8-Chloro-2-phenyl-5H-pyrrolo[1,2-a]quinoxalin-4-one], the melting point was 346 °C.
Regarding `CN1CCN(c2ccc3[nH]c(=O)c4cc(-c5ccccc5)cn4c3c2)CC1` [Example 14, 8-(4-Methyl-piperazin-1-yl)-2-phenyl-5H-pyrrolo[1,2-a]quinoxalin-4-one], the IC50 is greater than 10 µM on Human A2A receptor, 0.011 µM at Human A3 receptor [1], 8.4 µM on Human A1 receptor and greater than 10 µM on Human A2B receptor.
For the compound `O=c1[nH]c2ccc(NCCCN3CCOCC3)cc2n2cc(-c3ccccc3)cc12` [Example 15, 8-(3-Morpholin-4-yl-propylamino)-2-phenyl-5H-pyrrolo[1,2-a]quinoxalin-4-one, trifluoro-acetic acid salt], the results for the inhibition at 10 µM on Human A2A receptor and on Human A1 receptor were 69% and 53%, respectively. In addition, the values for the IC50 at Human A3 receptor [1] and at Human A2B receptor were 0.0031 µM and greater than 10 µM, respectively.
`O=C(O)C(F)(F)F.O=c1[nH]c2ccc(OCCN3CCOCC3)cc2n2cc(-c3ccccc3)cc12` [Example 17, 8-(2-Morpholin-4-yl-ethoxy)-2-phenyl-5H-pyrrolo[1,2-a]quinoxalin-4-one, trifluoroacetic acid salt] registered a melting point of 190 to 200 °C. In addition, on Human A2A receptor, the inhibition at 10 µM was found to be 57%. Further, the IC50 on Human A3 receptor [1] was 0.0035 µM. Further, the inhibition at 10 µM at Human A1 receptor turned out to be 54%. Moreover, the IC50 at Human A2B receptor is greater than 10 µM.

For the origin of these results see US20090093476A1, “PYRROLO[1,2-A]QUINOXALINE DERIVATIVES AS ADENOSINE A3 RECEPTOR MODULATORS AND USES THEREOF” (FAUST PHARMACEUTICALS, priority 2005, published 2009).
